2 compounds from paper PMC12390126, “Human Skin Permeation of Ethoxy- and Propoxypropanol Commonly Found in Water-Based Products” (Toxics, 2025) can be followed below.

A short description of data set [1]: In vitro flow-through diffusion cell skin permeation. The class given is in vitro ADME, human. As to conditions: for first quantified in the receptor fluid after application: Figure 1A, first 3 h of exposure; for permeability rate J diluted in water compared to neat: aqueous 50:50 versus neat; for time to permeate previously frozen human skin: aqueous PGEs applied. The text has this:
(§1) Human abdominal full thickness skin was obtained as surgical waste from the Lausanne University Hospital (CHUV) and the Department of Musculoskeletal Medicine (DAL) Biobank, Switzerland, according to the Swiss ethics in the canton Vaud (CER-VD: Commission cantonal d’éthique de la recherche sur l’être humain, ethical protocol 264/12). The surgeon obtained written consent from the patients before the start of the operation. The collected skin was anonymized, and only sex and age were provided for this study. Human skin was obtained directly after the surgery and immediately dermatomed to a thickness of 800 µm (Acculan®II, B. Braun/Aesculap, Sempach, Switzerland) to account for any potential storage effects on its in vitro mass balance. The experiments were run with triplicate skin samples (n = 3) from three different donors giving a total of nine samples for each experiment. The skin samples used for this study were stored at −20 °C for up to four years. The experiments were performed only when a sufficient number of skin samples was available from three different donors.
The in vitro flow-through diffusion cell experiments were used to assess skin permeation kinetics after neat and aqueous application, separately. The abdominal human frozen skin was thawed for one hour at room temperature and cut into disks (exposed area of 1 cm^2). These were mounted onto the diffusion cells between the donor and the receptor chamber filled with saline water (0.9% NaCl (aq), 8 mL). Four different experimental conditions were used: application of solutions containing either PGEE or PGPE (neat) and application of aqueous solutions of PGEE or PGPE (50:50 v/v mixture). Each experiment was performed with triplicate cells from three different donors ([…] diffusion cells exposed to PGE per experimental condition) and one control cell per skin donor (n = 3 diffusion cells not exposed to PGE). The trans epidermal water loss (TEWL; VapoMeter wireless, Delfin Technologies Ltd., Kuopio, Finland) was measured for each skin disk to assess skin sample integrity. Skin samples with a TEWL greater than 11 g/m^2/h were excluded. TEWL was measured again at the end of each experiment to confirm skin integrity throughout the experiment.
The in vitro flow-through diffusion cell experiments were carried out using a rack-mounted system consisting of nine in-line jacketed flow-through diffusion cells (PermeGear® from SES Analytical System, Bechenheim, Germany). A peristaltic pump (Ismatec IPC-N, IDEX Health and Science GmbH, Wertheim-Mondfeld, Germany) operated at a flow rate of 200 µL/min for the first 180 min to ensure that the transition point—when the glycol ethers reached the receptor fluid—was accurately captured for these rapidly diffusing substances. The pump rate was then adjusted to 40 µL/min for the remaining time until 24 h. These collection times and flow rates were set to achieve steady state. The diffusion cell system was equipped with a magnetic stirrer in each cell to ensure a constant and uniform mixing of the substances in the reservoir fluid. The diffusion cells were kept at 32 °C with a heated water bath (Haake SC 100 Digital Immersion Circulator, Thermo Scientific, Newington, NH, USA). A fraction collector (FC 204, Gilson Inc., Middleton, WI, USA) automatically sampled the reservoir fluid at different time points for 24 h, i.e., at 0.5, 1, 1.5, 2, 2.5, 3, 6, 9, 12, 15, 18, 21, and 24 h. PGPE (>95%) and PGEE (>99%) (Chemic Brunschwig AG, Basel, Switzerland) were applied separately onto the skin samples either neat substances or aqueous solutions (Milli-Q Advantage A10 System, Millipore AG, MerckMillipore, Schaffhouse, Switzerland). We applied 500 µL (aqueous application) and 200 µL (neat application) of them to increase the likelihood of reaching steady state permeation conditions. All collected samples were stored at 4 °C after the experiment. […]

Data set [2] can be described thus: In vitro static diffusion cell skin permeation (influence of water). The class given is in vitro ADME, human. To be noted: static cells; 0, 25, 50 or 75% of water.
From the text: as §1, with “The experiments were performed only when a sufficient number of skin samples was available from three different donors.” left out
The concentrations of parent compounds were quantified by gas-chromatography tandem mass spectrometry (GC-MS/MS). […] The limits of detections (LODs) for PGEE and PGPE were 0.045 µg/mL and 0.035 µg/mL, respectively, and the limits of quantifications (LOQs) for PGEE and for PGPE were 0.135 µg/mL and 0.105 µg/mL, respectively. […]

Molecules are shown by their SMILES. “Also recorded” adds a separate entry of the source. A value given as a limit tells only on which side of the number the result lay.

For the compound `CCOCC(C)O` (centres unmarked) [PGEE], in data set [1], the “first quantified in the receptor fluid after application” value is 30 min, the “permeability rate J diluted in water compared to neat” value is reported as “double” and the “time to permeate previously frozen human skin” value is given as at most 30 min. Moreover, the “mean cumulative amount in receptor fluid after 24 h: trend with percentage of water” value in data set [2] is “increased with the percentage of water in the applied mixture”.

Regarding `CCCOCC(C)O` (centres unmarked) [PGPE, propoxypropanol], in data set [1], the “first quantified in the receptor fluid after application” value is on record as 30 min, the “permeability rate J diluted in water compared to neat” value is recorded as “four times greater; also recorded: more than four times quicker” and the “time to permeate previously frozen human skin” value was at most 30 min. Besides, in data set [2], the “mean cumulative amount in receptor fluid after 24 h: trend with percentage of water” value is listed as “reached a maximum when diluted with 25 % water (75:25), followed by a decrease at higher water concentrations”.
